Measured values taken from publication PMC6475383 (Proceedings of the National Academy of Sciences of the …, 2019).

What was measured:
sheep erythrocytes = experiment: C3G patient serum-induced hemolysis of sheep erythrocytes; assay type: cell-based; details: 0.15 µM, 20% patient serum, EGTA
[1] = test system: lectin complement pathway; experiment: Wieslab lectin pathway assay in human serum; assay type: biochemical; details: up to 100 µM
PNH erythrocytes [2] = experiment: Ex vivo hemolysis of PNH erythrocytes
AP activation in plasma = experiment: LPS-induced AP activation in mice; assay type: in vivo, C57BL/6J mice; details: 30 mg/kg oral, 3.5 h after i.p. LPS
[3] = test system: C3 convertase activity in serum of C3G patients; experiment: Inhibition of C3 cleavage in C3G patient serum; assay type: biochemical; details: patient serum mixed with normal human serum, Mg2+-EGTA
[4] = test system: KRN/I-Ag7 serum transfer-induced arthritis; experiment: KRN arthritis model; assay type: in vivo, C57BL/6 mice
[5] = test system: classical complement pathway; experiment: Wieslab classical pathway assay in human serum; assay type: biochemical; details: up to 100 µM
PNH erythrocytes [6] = experiment: C3-opsonization of PNH erythrocytes; assay type: cell-based, human; details: acidified serum, 1 µM, flow cytometry
[7] = test system: receptors, ion channels, kinases, and proteases; experiment: Broad assay panel; details: up to 10 µM
[8] = test system: passive Heymann nephritis; experiment: Passive Heymann nephritis; assay type: in vivo, Sprague-Dawley rats; details: rats
[9] = prophylactic and therapeutic dosing, end of study

effects in a broad assay panel of receptors, ion channels, kinases, and proteases [7]: no significant effects
SMILES: CCO[C@H]1CCN(Cc2c(OC)cc(C)c3[nH]ccc23)[C@H](c2ccc(C(=O)O)cc2)C1 [LNP023]
C3G serum-induced hemolysis of sheep erythrocytes (sheep erythrocytes): potently blocked hemolysis
inhibition of lectin complement pathway activation [1]: no inhibition
IC50 (PNH erythrocytes [2]; Homo sapiens, Erythrocyte, 24 h, read-out: IC50 lysis of PNH erythrocytes): 400 nM
extent of inhibition of hemolysis of PNH erythrocytes (PNH erythrocytes [2]; dose-response, acidified NHS, FACS): full inhibition
complement activation in plasma (C3d/iC3b) after LPS (AP activation in plasma): effectively blocked complement activation
C3 cleavage in C3G patient sera [3]: blocked abnormal C3 cleavage
disease protection ([4]; mice, 60 mg/kg b.i.d. oral): Full disease protection
disease protection ([4]; mice, 180 mg/kg b.i.d. oral): Full disease protection
overall clinical score ([4]; mice, 20, 60, and 180 mg/kg b.i.d. oral): highly efficacious
complement activation in the joints (Ba, C3d, C5a) ([4]; mice, all doses (20, 60, 180 mg/kg b.i.d.)): significantly inhibited complement activation
joint histology: inflammatory cell infiltration, bone erosion, proteoglycan loss ([4]; mice, all treated animals, after 6 d of treatment): strongly blocked
inhibition of classical complement pathway activation [5]: no inhibition
C3 deposition on the surface of CD59-negative erythrocytes (PNH erythrocytes [6]): able to block C3 deposition
glomerular C3 deposition ([8]; after compound treatment): near-complete inhibition of complement activation
glomerulopathy [8, 9]: greatly attenuate
overall histopathology score [8, 9]: significantly improve
tubular degeneration [8, 9]: prevent tubular degeneration
disease progression after onset of proteinuria ([8]; therapeutic dosing from day 6): immediately halted further disease progression
